The subject of one assay is S. aureus 6538. Put plainly: Bacteriostatic effect. It is filed as cell-based. The note with it: Staphylococcus aureus, 6538, 24 h, read-out: MIC, S. aureus 6538.
Another assay concerns the target EcSecAN68 (Escherichia coli, UniProt P10408). The experiment in a line: biochemical. Further details: species or system E. coli.
A further assay has as its system E. coli NR698. Put plainly: Bacteriostatic effect. It is filed as cell-based. The note with it: Escherichia coli, NR698, 24 h, read-out: MIC, E. coli NR698.
The next assay relates to S. aureus Mu50. The experiment in a line: Bacteriostatic effect. The assay is classed as cell-based. The note with it: for Fold by which 7b and 12a are more effective than the antibiotic (MIC): S. aureus Mu50, label = antibiotic compared; for MIC: Staphylococcus aureus, MRSA, read-out: MIC, S. aureus Mu50; for MIC, S. aureus Mu50: MRSA strain Mu50, comparison with clinically used antibiotics.

Values after ≈ are worked out from the molar mass of the structure shown. Where only a bound is given, the exact number is not on record here.

As a reminder, the MIC is the lowest concentration found to suppress growth. One may read the IC50 as the point on the concentration scale where inhibition reaches its midpoint.

Chain of EcSecAN68 (P10408 1-610): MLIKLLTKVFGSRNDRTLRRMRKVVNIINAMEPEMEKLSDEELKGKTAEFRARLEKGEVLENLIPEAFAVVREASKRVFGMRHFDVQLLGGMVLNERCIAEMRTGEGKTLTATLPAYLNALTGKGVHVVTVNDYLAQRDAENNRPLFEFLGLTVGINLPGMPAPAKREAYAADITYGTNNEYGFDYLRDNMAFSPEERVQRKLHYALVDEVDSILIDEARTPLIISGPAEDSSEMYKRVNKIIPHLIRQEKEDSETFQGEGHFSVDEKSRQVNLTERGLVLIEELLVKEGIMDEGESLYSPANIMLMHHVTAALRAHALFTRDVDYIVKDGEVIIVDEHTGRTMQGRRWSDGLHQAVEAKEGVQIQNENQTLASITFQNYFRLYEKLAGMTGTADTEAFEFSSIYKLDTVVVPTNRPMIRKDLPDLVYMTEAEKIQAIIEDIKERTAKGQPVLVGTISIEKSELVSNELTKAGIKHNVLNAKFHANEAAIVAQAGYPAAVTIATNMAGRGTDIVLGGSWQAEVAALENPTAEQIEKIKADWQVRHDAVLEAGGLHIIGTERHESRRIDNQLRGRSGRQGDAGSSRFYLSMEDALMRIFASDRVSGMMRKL

On to `CSc1nc(Cl)cc(Sc2nnc(-c3cccc(C(F)(F)F)c3)[nH]2)n1` [Compound 7j, 4-Chloro-2-(methylthio)-6-((5-(3-(trifluoromethyl)phenyl)-4H-1,2,4-triazol-3-yl)thio) pyrimidine], for which the MIC in the assay with S. aureus 6538 and in the assay with E. coli NR698 was > 250 µM throughout. In addition, the IC50 against EcSecAN68 is < 50 µM.

Take `Cc1cc(C)cc(-c2nnc(Sc3cc(Cl)ncn3)[nH]2)c1` [Compound 9a, 4-Chloro-6-((5-(3,5-dimethylphenyl)-4H-1,2,4-triazol-3-yl)thio) pyrimidine]: the minimum inhibitory concentration (MIC) with S. aureus 6538 and in the assay on E. coli NR698 was > 250 µM each time. Also, at EcSecAN68, the IC50 was > 200 µM.

As to `FC(F)(F)c1cc(-c2nnc(Sc3cc(Cl)ncn3)[nH]2)cc(C(F)(F)F)c1` [Compound 9b, 4-((5-(3,5-Bis(trifluoromethyl)phenyl)-4H-1,2,4-triazol-3-yl)thio)-6-chloropyrimidine], the figures for the minimal inhibitory concentration (MIC) in the assay with S. aureus 6538 and in the assay with E. coli NR698 were 18.8 µM (≈ 8 µg/mL) and 35.4 µM (≈ 15.1 µg/mL), respectively. At EcSecAN68, this compound came in with an IC50 of 100 µM.

For `FC(F)(F)c1cc(-c2nnc(Sc3cc(Cl)nc(Oc4ccccc4)n3)[nH]2)cc(C(F)(F)F)c1` [Compound 12c, 4-((5-(3,5-Bis(trifluoromethyl)phenyl)-4H-1,2,4-triazol-3-yl)thio)-6-chloro-2-phenoxy-pyrimidine], the figures for the MIC in the assay with S. aureus 6538 and in the assay on E. coli NR698 were 3.1 µM (≈ 1.61 µg/mL) and 8.3 µM (≈ 4.3 µg/mL), respectively. The IC50 at EcSecAN68 is 9 µM.

For the compound `Fc1cc(F)cc(-c2nnc(Sc3cc(Cl)nc(Sc4ccccc4)n3)[nH]2)c1` [Compound 12f, 4-Chloro-6-((5-(3,5-difluorophenyl)-4H-1,2,4-triazol-3-yl)thio)-2-(phenylthio) pyrimidine], the MIC with S. aureus 6538 came to 20.8 µM (≈ 9.03 µg/mL); in the assay with E. coli NR698, 31.3 µM (≈ 13.6 µg/mL). Moreover, the IC50 on EcSecAN68 was < 50 µM.

As to `FC(F)(F)c1cccc(-c2nnc(Sc3cc(Cl)nc(Sc4ccccc4)n3)[nH]2)c1` [Compound 12g, 4-Chloro-2-(phenylthio)-6-((5-(3-(trifluoromethyl)phenyl)-4H-1,2,4-triazol-3-yl)thio) pyrimidine], the MIC in the assay on S. aureus 6538 and in the assay with E. coli NR698 was 18.8 µM (≈ 8.76 µg/mL) in each case. Further, the IC50 against EcSecAN68 is < 50 µM.

Take `COc1cc(OC)cc(-c2nnc(Sc3cc(Cl)nc(Sc4ccccc4)n3)[nH]2)c1` [Compound 12h, 4-Chloro-6-((5-(3,5-dimethoxyphenyl)-4H-1,2,4-triazol-3-yl)thio)-2-(phenylthio) pyrimidine]: the MIC in the assay on S. aureus 6538 was ≥ 100 µM; with E. coli NR698 it was > 250 µM. The half-inhibitory concentration (IC50) against EcSecAN68 is < 50 µM.

For the compound `FC(F)(F)c1ccc(-c2nnc(Sc3cc(Cl)nc(Sc4ccccc4)n3)[nH]2)cc1` [Compound 12i, 4-Chloro-2-(phenylthio)-6-((5-(4-(trifluoromethyl)phenyl)-4H-1,2,4-triazol-3-yl)thio) pyrimidine], the MIC in the assay with S. aureus 6538 came to 8.3 µM (≈ 3.87 µg/mL); in the assay on E. coli NR698, 12.5 µM (≈ 5.82 µg/mL). In addition, the IC50 against EcSecAN68 was < 50 µM.

Turning to `COc1cc(O)cc(-c2nnc(Sc3cc(Cl)nc(Sc4ccccc4)n3)[nH]2)c1` [Compound 12j, 3-(5-((6-Chloro-2-(phenylthio)pyrimidin-4-yl)thio)-4H-1,2,4-triazol-3-yl)-5-methoxy phenol], the MIC in the assay on S. aureus 6538 is ≥ 250 µM; in the assay with E. coli NR698, > 250 µM. For the same compound, the IC50 against EcSecAN68 was < 50 µM.

With `CSc1nc(Cl)cc(Sc2nnc(-c3cc(C(F)(F)F)cc(C(F)(F)F)c3)o2)n1` [Compound 15, 2-(3,5-Bis(trifluoromethyl)phenyl)-5-((6-chloro-2-(methylthio)pyrimidin-4-yl)thio)-1,3,4-oxadiazole], the results for the MIC with S. aureus 6538 and in the assay on E. coli NR698 were > 250 µM and > 100 µM, respectively. Besides, the IC50 against EcSecAN68 came to 200 µM.

For the compound `FC(F)(F)c1cc(-c2n[nH]c(Sc3nc(Cl)cc(Cl)n3)n2)cc(C(F)(F)F)c1` [Compound 16a, 2-((3-(3,5-Bis(trifluoromethyl)phenyl)-1H-1,2,4-triazol-5-yl)thio)-4,6-dichloropyrimidine], the results for the MIC in the assay with S. aureus 6538 and in the assay on E. coli NR698 were 6.3 µM (≈ 2.9 µg/mL) and 12.5 µM (≈ 5.75 µg/mL), respectively. The concentration for half-maximal inhibition (IC50) against EcSecAN68 is 50 µM.

In the case of `Fc1cccc(-c2nnc(Sc3nc(Cl)cc(Cl)n3)[nH]2)c1` [Compound 16d, 4,6-Dichloro-2-((5-(3-fluorophenyl)-4H-1,2,4-triazol-3-yl)thio) pyrimidine], the MIC was ≥ 100 µM in the assay with S. aureus 6538 and 200 µM (≈ 68.4 µg/mL) in the assay on E. coli NR698. In addition, the 50% inhibitory concentration (IC50) at EcSecAN68 is > 100 µM.

For the compound `FC(F)(F)c1cc(-c2nnc(Sc3nc(Cl)cc(NCc4ccccc4)n3)[nH]2)cc(C(F)(F)F)c1` [Compound 16e, N-Benzyl-2-((3-(3,5-bis(trifluoromethyl)phenyl)-4H-1,2,4-triazol-5-yl)thio)-6-chloro-pyrimidin-4-amine], the values for the MIC in the assay with S. aureus 6538 and in the assay on E. coli NR698 were 50 µM (≈ 26.5 µg/mL) and ≥ 250 µM, respectively. The IC50 against EcSecAN68 is > 50 µM.

Turning to `FC(F)(F)c1cc(-c2nnc(Sc3nc(Cl)cc(Cl)n3)o2)cc(C(F)(F)F)c1` [Compound 17, 2-(3,5-Bis(trifluoromethyl)phenyl)-5-((4,6-dichloropyrimidin-2-yl)thio)-1,3,4-oxadiazole], the results for the MIC in the assay on S. aureus 6538 and with E. coli NR698 were 18.8 µM (≈ 8.67 µg/mL) and > 250 µM, respectively. Moreover, on EcSecAN68, the half-inhibitory concentration (IC50) was found to be 70 µM.

As to `FC(F)(F)c1cc(-c2n[nH]c(Oc3nc(Cl)cc(Oc4nnc(-c5cc(C(F)(F)F)cc(C(F)(F)F)c5)[nH]4)n3)n2)cc(C(F)(F)F)c1` [Compound 18], the minimum inhibitory concentration (MIC) is 250 µM (≈ 176 µg/mL) in the assay with S. aureus 6538 and > 250 µM in the assay on E. coli NR698. For the same compound, the IC50 at EcSecAN68 is < 50 µM.

As for `N#Cc1c(-c2ccc(Br)cc2)nc(Sc2nc(Cl)cc(Cl)n2)[nH]c1=O` [Compound 20a, 4-(4-Bromophenyl)-2-((4,6-dichloropyrimidin-2-yl)thio)-6-oxo-1,6-dihydropyrimidine-5-carbonitrile], the MIC in the assay with S. aureus 6538 and with E. coli NR698 was > 250 µM each time. Further, the 50% inhibitory concentration (IC50) against EcSecAN68 was < 50 µM.

Take `CCc1ccc(-c2nc(Sc3nc(Cl)cc(Cl)n3)[nH]c(=O)c2C#N)cc1` [Compound 20b, 2-((4,6-Dichloropyrimidin-2-yl)thio)-4-(4-ethylphenyl)-6-oxo-1,6-dihydropyrimidine-5-carbonitrile]: the MIC with S. aureus 6538 and in the assay with E. coli NR698 was > 250 µM in each case. On EcSecAN68, the IC50 was < 50 µM.

Regarding `CSc1nc(Cl)c2c(n1)Sc1nnc(-c3cc(C(F)(F)F)cc(C(F)(F)F)c3)n1N=C2` [Compound 24], the figures for the minimal inhibitory concentration (MIC) with S. aureus 6538 and in the assay with E. coli NR698 were 3.1 µM (≈ 1.54 µg/mL) and 12.5 µM (≈ 6.21 µg/mL), respectively. Also, on EcSecAN68, the half-inhibitory concentration (IC50) is < 25 µM.

`CSc1nc(Cl)c2c(n1)Sc1nnc(-c3cc(C(F)(F)F)cc(C(F)(F)F)c3)n1NC2` [Compound 25]: the values for the MIC in the assay with S. aureus 6538 and in the assay on E. coli NR698 were > 100 µM and > 250 µM, respectively. For the same compound, the IC50 on EcSecAN68 was 46 µM.

With `CSC1=NC2=C(CN1)CNn1c(nnc1-c1cc(C(F)(F)F)cc(C(F)(F)F)c1)S2` [Compound 26], the MIC in the assay on S. aureus 6538 and in the assay with E. coli NR698 was > 100 µM in each case. It took 50 µM to reach half-maximal inhibition against EcSecAN68 (IC50).

As for `CC1(C)S[C@@H]2[C@H](NC(=O)[C@H](N)c3ccccc3)C(=O)N2[C@H]1C(=O)O` [ampicillin], in the assay with S. aureus Mu50, the “Fold by which 7b and 12a are more effective than the antibiotic (MIC)” value (“Fold” below) is recorded as > 1300 fold; the MIC was determined as 1000 µg/mL (≈ 2860 µM).

For the compound `CC[C@H]1OC(=O)[C@H](C)[C@@H](O[C@H]2C[C@@](C)(OC)[C@@H](O)[C@H](C)O2)[C@H](C)[C@@H](O[C@@H]2O[C@H](C)C[C@H](N(C)C)[C@H]2O)[C@](C)(O)C[C@@H](C)C(=O)[C@H](C)[C@@H](O)[C@]1(C)O` [erythromycin], in the assay with S. aureus Mu50, the “Fold” value is given as > 1600 fold; the MIC is 1250 µg/mL (≈ 1700 µM).

With `NC[C@H]1O[C@H](O[C@H]2[C@H](O)[C@@H](O[C@H]3O[C@H](CO)[C@@H](O)[C@H](N)[C@H]3O)[C@H](N)C[C@@H]2N)[C@H](O)[C@@H](O)[C@@H]1O` [kanamycin], in the assay with S. aureus Mu50, the “MIC, S. aureus Mu50” value came out at 1000 µg/mL (≈ 2060 µM); the “Fold” value is > 1300 fold.

`CCn1cc(C(=O)O)c(=O)c2cc(F)c(N3CCNCC3)cc21` [norfloxacin]: the “Fold” value in the assay on S. aureus Mu50 was > 330 fold.

In the case of `CO[C@H]1/C=C/O[C@@]2(C)Oc3c(C)c(O)c4c(O)c(c(/C=N/N5CCN(C)CC5)c(O)c4c3C2=O)NC(=O)/C(C)=C\C=C\[C@H](C)[C@H](O)[C@@H](C)[C@@H](O)[C@@H](C)[C@H](OC(C)=O)[C@@H]1C` [rifampicin], in the assay with S. aureus Mu50, the “Fold” value is on record as > 1300 fold; the MIC amounted to 1000 µg/mL (≈ 1220 µM).

Take `CN(C)[C@@H]1C(O)=C(C(N)=O)C(=O)[C@@]2(O)C(O)=C3C(=O)c4c(O)cccc4[C@@](C)(O)[C@H]3C[C@@H]12` [tetracycline]: in the assay on S. aureus Mu50, the “Fold” value was > 80 fold; the MIC stood at 63 µg/mL (≈ 142 µM).

As to polymyxin B, in the assay with S. aureus Mu50, the “MIC, S. aureus Mu50” value is 31 µg/mL; the “Fold” value is listed as > 40 fold.

The values are drawn from article PMC4778717 (ChemMedChem, 2015).
